Test results as given in patent publication US9186360B2, “Treatment of respiratory disorders using TRPA1 antagonists” (GLENMARK PHARMACEUTICALS S.A., priority 2011, dated 2015).

Assays:
human TRPV1 = human TRPV1 (Homo sapiens (Human), UniProt Q8NER1); test: Radiometric calcium selectivity assay, CHO cells expressing human TRPV1 (capsaicin); format: cell-based; settings: read-out: IC50 values hTRPV1
Protocol: (§1) For selectivity screening, CHO cells stably expressing human TRPV1, human TRPV3, human TRPV4, or human TRPM8 were generated in-house and maintained in DMEM F-12 supplemented with 10% FBS and G418. All the cell types were cultured at 37° C. in humidified air containing 5% CO2. Radiometric calcium assay was performed as described above with some minor modifications. Assay was carried out in total volume of 200 μl at 30° C. (for TRPV1), 32° C. (for TRPV3) and 25° C. (for TRPV4 and TRPM8). Agonists used for selectivity screening of the different TRPs are: Capsaicin for TRPV1,2-aminoethoxydiphenyl borate for TRPV3, 4α-phorbol 12,13-didecanoate for TRPV4 and Icilin for TRPM8. After 2-5 minutes of agonist treatment, drug was washed and lysed in lysis buffer as mentioned above. Radioactivity in the lysate was measured in Packard Top count after addition of liquid scintillant.

human TRPV3 = human TRPV3 (Homo sapiens (Human), UniProt Q8NET8); test: Radiometric calcium selectivity assay, CHO cells expressing human TRPV3 (2-aminoethoxydiphenyl borate); format: cell-based; settings: read-out: IC50 values hTRPV3
Protocol: as §1

human TRPV4 = human TRPV4 (Homo sapiens (Human), UniProt Q9HBA0); test: Radiometric calcium selectivity assay, CHO cells expressing human TRPV4 (4α-phorbol 12,13-didecanoate); format: cell-based; settings: read-out: IC50 values hTRPV4
Protocol: as §1

human TRPM8 = human TRPM8 (Homo sapiens (Human), UniProt Q7Z2W7); test: Radiometric calcium selectivity assay, CHO cells expressing human TRPM8 (icilin); format: cell-based; settings: read-out: IC50 values hTRPM8
Protocol: as §1

[1] = system: ovalbumin sensitized Brown Norway rats; test: Ovalbumin asthma model in Brown Norway rats (Example 5); format: in vivo, rat; settings: i.t. 1 hour before ovalbumin challenge, BAL 48 hours; dose dependent
Protocol: Male BN rats were sensitized subcutaneously (s.c.) on day 0, 14 and 21 with 0.5 ml solution containing 20 μg/ml ovalbumin (Ova) and 40 mg/ml aluminum hydroxide. Simultaneously the animals were injected intraperitoneally (i.p.) with 0.25 ml of B. pertussis vaccine/rat containing 4×10^8 heat killed bacilli/ml. The rats were challenged with 1% aerosolized ovalbumin on Day 28 following sensitization.
Test compounds were triturated and volume was made up with Normal Saline (0.9% NaCl). Animals were administered TRPA1 antagonists (Compound 52, Compound 73, Compound 84, Compound 90 and Compound 92) intra-tracheally (i.t.) 1 hour and fluticasone 24 hours and 1 hour before ovalbumin challenge. Animals were sacrificed 48 hours after ovalbumin challenge.
BAL was performed at approximately 48 hours after ovalbumin challenge and the pooled BAL was used to determined total number of cells and for cell differential study (according to Example 2).
The total number of eosinophils in each BAL sample and % inhibition of eosinophils were calculated according to Example 3
The data was statistically evaluated by ANOVA followed by Dunnett's multiple comparisons test.

human TRPA1 = human TRPA1 (Homo sapiens (Human), UniProt O75762); test: 45Calcium uptake assay, AITC induced, human TRPA1 expressing CHO cells; format: cell-based; settings: AITC 30 micromolar, read-out: IC50 values hTRPA1
Protocol: As contemplated herein, the IC50 value is measured by the following method. The inhibition of TRPA1 receptor activation is measured as inhibition of allylisothiocyanate (AITC) induced cellular uptake of radioactive calcium. Test solution of test compound is prepared in a suitable solvent using appropriate method. Human TRPA1 expressing CHO cells are grown in suitable medium. Cells are treated with test compounds followed by addition of AITC. Cells are washed and lysed. Radioactivity in the lysate is measured in Packard Top count after addition of liquid scintillant. The concentration response curves for compounds are plotted as a % of maximal response obtained in the absence of test antagonist, and the IC50 values are calculated from such concentration response curve by nonlinear regression analysis using GraphPad PRISM software.
The illustrative TRPA1 antagonists of the present invention were screened for TRPA1 activity according to a modified procedure described in Tóth, A. et al., Life Sciences 2003, 73, 487-498. The screening of the compounds can be carried out by other methods and procedures known to persons skilled in the art.
Screening for TRPA1 Antagonist Using the 45Calcium Uptake Assay:
The inhibition of TRPA1 receptor activation was measured as inhibition of allylisothiocyanate (AITC) induced cellular uptake of radioactive calcium. Test compounds were dissolved in DMSO to prepare 10 mM stock solution and then diluted using plain medium with 0.1% BSA and 1.8 mM CaCl2 to get desired concentration. Final concentration of DMSO in the reaction was 0.5% (v/v). Human TRPA1 expressing CHO cells were grown in F-12 DMEM medium with 10% FBS, 1% penicillin-streptomycin solution, and 400 μg/ml of G-418. Cells were seeded 24 h prior to the assay in 96 well plates so as to get ˜50,000 cells per well on the day of experiment. Cells were treated with test compounds for 10 min followed by addition of AITC at a final concentration of 30 micromolar and 5 μCi/ml 45Ca+2 for 3 min at 25° C. Cells were washed and lysed using buffer containing 1% Triton X-100, 0.1% deoxycholate and 0.1% SDS. Radioactivity in the lysate was measured in Packard Top count after addition of liquid scintillant.
Concentration response curves were plotted as a % of maximal response obtained in the absence of test antagonist. IC50 value was calculated from concentration response curve by nonlinear regression analysis using GraphPad PRISM software.

human TRPV4, sequence (Q9HBA0 whole entry): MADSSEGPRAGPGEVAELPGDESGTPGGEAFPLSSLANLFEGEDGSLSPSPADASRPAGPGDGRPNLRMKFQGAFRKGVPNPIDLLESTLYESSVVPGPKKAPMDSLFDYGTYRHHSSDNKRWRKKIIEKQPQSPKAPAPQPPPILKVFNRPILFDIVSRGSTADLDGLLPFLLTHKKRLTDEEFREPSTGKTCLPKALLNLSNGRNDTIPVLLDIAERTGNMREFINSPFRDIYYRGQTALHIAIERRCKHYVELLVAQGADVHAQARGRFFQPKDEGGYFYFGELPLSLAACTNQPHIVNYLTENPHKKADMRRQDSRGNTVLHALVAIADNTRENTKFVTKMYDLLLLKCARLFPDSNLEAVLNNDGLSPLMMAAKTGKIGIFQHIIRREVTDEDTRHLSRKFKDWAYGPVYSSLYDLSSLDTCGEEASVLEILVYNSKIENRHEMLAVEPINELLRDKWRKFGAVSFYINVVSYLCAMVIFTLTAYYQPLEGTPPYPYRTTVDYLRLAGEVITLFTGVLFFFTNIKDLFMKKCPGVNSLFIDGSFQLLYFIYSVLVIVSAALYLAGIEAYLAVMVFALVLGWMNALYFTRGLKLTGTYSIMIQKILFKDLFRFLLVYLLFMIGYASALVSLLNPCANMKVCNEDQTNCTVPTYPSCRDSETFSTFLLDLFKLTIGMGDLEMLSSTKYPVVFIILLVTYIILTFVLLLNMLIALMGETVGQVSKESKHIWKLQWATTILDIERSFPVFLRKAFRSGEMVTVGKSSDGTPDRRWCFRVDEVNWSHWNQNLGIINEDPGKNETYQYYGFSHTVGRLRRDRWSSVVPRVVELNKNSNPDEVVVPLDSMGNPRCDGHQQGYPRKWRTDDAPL
human TRPV1, sequence (Q8NER1 whole entry): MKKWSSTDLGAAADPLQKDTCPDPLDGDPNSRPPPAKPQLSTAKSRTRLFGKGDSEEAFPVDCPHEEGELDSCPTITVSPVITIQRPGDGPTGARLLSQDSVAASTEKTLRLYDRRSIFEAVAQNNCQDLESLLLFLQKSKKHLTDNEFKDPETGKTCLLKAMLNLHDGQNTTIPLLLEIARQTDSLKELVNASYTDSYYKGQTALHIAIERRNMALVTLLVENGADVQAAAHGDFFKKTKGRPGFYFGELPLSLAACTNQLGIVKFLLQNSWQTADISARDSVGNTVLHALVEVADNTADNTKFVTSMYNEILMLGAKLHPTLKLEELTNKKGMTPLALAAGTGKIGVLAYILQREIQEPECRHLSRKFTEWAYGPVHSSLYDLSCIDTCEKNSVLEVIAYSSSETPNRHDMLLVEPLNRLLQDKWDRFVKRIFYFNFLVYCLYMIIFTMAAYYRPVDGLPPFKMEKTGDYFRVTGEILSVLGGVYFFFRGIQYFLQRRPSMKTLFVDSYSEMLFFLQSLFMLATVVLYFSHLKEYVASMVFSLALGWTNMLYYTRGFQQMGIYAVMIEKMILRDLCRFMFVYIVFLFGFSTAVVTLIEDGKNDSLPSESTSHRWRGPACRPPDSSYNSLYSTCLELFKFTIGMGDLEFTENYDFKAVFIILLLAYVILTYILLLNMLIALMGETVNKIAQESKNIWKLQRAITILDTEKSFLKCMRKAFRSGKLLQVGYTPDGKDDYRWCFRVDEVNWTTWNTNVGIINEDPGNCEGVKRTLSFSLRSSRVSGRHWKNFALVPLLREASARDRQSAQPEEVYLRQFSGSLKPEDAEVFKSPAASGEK
human TRPV3, sequence (Q8NET8 whole entry): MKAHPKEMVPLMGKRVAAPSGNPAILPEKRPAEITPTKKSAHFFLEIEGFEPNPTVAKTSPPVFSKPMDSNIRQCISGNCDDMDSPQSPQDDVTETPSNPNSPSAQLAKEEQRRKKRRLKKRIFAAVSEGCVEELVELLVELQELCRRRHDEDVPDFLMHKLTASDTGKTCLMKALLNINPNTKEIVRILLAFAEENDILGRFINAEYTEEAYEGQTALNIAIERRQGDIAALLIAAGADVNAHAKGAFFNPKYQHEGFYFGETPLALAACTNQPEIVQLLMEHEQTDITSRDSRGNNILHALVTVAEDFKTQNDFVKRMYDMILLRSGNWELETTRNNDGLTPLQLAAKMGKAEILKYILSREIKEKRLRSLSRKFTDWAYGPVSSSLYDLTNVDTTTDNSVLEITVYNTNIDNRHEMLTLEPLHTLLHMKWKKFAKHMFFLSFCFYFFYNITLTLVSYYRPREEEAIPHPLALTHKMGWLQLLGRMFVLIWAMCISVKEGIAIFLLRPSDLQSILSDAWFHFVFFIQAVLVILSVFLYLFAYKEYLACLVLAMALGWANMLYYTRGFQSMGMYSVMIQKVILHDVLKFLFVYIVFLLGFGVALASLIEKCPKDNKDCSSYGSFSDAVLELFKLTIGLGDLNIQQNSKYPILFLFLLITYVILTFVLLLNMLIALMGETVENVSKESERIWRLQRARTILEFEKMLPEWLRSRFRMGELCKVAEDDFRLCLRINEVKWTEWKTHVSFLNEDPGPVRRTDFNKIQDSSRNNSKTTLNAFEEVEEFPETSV
human TRPM8, sequence (Q7Z2W7 whole entry): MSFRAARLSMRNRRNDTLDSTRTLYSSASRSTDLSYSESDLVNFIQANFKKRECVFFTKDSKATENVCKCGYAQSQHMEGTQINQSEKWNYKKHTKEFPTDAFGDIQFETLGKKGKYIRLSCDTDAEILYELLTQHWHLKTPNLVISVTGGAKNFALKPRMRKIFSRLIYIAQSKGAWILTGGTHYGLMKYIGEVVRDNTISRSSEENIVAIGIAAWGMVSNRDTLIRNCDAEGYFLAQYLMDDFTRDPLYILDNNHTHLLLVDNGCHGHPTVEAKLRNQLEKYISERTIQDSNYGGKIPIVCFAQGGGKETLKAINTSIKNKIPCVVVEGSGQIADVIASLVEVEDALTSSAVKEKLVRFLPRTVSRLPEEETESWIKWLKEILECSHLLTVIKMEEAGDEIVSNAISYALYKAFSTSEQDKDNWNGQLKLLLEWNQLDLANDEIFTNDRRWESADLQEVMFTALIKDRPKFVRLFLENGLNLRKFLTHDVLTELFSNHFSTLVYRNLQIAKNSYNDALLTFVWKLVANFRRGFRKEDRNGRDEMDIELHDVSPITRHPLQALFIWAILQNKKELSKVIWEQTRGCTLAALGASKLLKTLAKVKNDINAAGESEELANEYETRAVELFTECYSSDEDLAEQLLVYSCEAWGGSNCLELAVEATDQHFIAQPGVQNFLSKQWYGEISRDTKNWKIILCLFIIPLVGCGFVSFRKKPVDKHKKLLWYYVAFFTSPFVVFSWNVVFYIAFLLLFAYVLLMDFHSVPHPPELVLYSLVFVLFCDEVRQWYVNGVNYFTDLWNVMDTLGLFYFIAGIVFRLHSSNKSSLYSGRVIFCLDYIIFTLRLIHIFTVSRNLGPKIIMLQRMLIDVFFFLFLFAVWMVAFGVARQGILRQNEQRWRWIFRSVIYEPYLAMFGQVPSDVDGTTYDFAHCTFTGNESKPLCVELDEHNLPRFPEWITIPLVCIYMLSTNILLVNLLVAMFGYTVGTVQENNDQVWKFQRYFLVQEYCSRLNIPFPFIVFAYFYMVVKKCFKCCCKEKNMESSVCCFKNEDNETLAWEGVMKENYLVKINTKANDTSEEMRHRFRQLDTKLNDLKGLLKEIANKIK
human TRPA1, sequence (O75762 whole entry): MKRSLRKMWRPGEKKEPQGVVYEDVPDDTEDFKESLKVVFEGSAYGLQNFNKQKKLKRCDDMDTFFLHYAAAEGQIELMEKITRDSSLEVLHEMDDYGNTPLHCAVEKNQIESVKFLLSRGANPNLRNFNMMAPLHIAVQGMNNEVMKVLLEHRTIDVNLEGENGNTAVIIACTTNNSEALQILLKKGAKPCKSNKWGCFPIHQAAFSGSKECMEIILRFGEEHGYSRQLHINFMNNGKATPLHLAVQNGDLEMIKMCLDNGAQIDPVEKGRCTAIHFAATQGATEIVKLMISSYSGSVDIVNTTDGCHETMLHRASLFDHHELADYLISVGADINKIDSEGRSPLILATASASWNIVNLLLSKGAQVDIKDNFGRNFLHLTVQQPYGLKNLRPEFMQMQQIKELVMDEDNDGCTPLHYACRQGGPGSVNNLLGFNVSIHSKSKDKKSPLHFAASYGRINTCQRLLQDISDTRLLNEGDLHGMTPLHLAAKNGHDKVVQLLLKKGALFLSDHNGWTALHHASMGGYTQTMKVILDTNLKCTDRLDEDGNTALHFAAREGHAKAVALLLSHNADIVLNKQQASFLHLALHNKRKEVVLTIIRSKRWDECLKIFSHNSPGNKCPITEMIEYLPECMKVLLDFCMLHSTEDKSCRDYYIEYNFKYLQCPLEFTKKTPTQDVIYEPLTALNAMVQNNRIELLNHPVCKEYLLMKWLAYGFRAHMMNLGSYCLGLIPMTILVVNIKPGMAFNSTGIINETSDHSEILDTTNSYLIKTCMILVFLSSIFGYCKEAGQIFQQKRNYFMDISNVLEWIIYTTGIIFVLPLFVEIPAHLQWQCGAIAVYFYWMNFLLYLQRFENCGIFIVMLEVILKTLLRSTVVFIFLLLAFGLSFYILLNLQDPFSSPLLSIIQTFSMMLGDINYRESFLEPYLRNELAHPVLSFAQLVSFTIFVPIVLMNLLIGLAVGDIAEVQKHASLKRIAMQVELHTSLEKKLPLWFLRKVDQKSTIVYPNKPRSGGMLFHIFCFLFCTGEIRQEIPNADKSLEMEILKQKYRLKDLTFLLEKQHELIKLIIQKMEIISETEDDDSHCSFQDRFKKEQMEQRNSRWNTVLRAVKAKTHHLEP

Row | Compound | IC50 (human TRPV1) [nM] | IC50 (human TRPV3) [nM] | IC50 (human TRPV4) [nM] | IC50 (human TRPM8) [nM] | IC50 (human TRPA1) [nM] | pulmonary eosinophilia [1]
1 | Cn1c(=O)c2c(CC(=O)Nc3nc(-c4ccc(F)c(C(F)(F)F)c4F)cs3)onc2n(C)c1=O [Compound 92] | > 10000 | > 1000 | > 1000 | > 10000 | – | significant inhibition
2 | Cc1oc2c(c1CC(=O)Nc1nc(-c3cc(Cl)c(OCC(C)C)c(Cl)c3)cs1)c(=O)n(C)c(=O)n2C [Compound 75] | > 10000 | > 10000 | > 10000 | > 10000 | 3.34 | –
3 | Cc1oc2c(c1CC(=O)Nc1nc(-c3cc(F)c(OCC(C)(C)C)c(F)c3)cs1)c(=O)n(C)c(=O)n2C [Compound 66] | > 10000 | > 10000 | > 10000 | > 10000 | 3.63 | –
4 | Cn1c(=O)c2c(CC(=O)Nc3nc(-c4cccc(Cl)c4)cs3)cccc2n(C)c1=O [Compound 9] | > 10000 | > 1000 | > 1000 | > 10000 | 102 | –
5 | Cc1oc2c(c1CC(=O)Nc1nc(-c3ccc(F)c(C(F)(F)F)c3)cs1)c(=O)n(C)c(=O)n2C [Compound 69] | > 10000 | > 1000 | > 1000 | > 10000 | 7.1 | –
6 | Cn1c(=O)c2c(cnn2CC(=O)Nc2nc(-c3ccc(OCC(C)(C)C)c(F)c3)cs2)n(C)c1=O [Compound 45] | > 10000 | > 1000 | > 1000 | > 10000 | 26.4 | –
7 | Cn1nc2c(c1CC(=O)Nc1nc(-c3ccc(C(F)(F)F)c(F)c3)cs1)c(=O)n(C)c(=O)n2C [Compound 38] | > 10000 | > 10000 | > 1000 | > 10000 | 15.9 | –
8 | Cn1c(=O)c2c(CC(=O)Nc3nc(-c4cc(F)cc(C(F)(F)F)c4)cs3)coc2n(C)c1=O [Compound 55] | > 10000 | > 1000 | > 1000 | > 10000 | 2.15 | –
9 | Cn1c(=O)c2c(CC(=O)Nc3nc(-c4ccc(OC(F)(F)F)c(Cl)c4)cs3)nsc2n(C)c1=O [Compound 80] | > 10000 | > 10000 | 279 | > 10000 | 6.28 | –
10 | Cn1c(=O)c2c(CC(=O)Nc3nc(-c4cc(F)c(OCC(F)(F)F)c(F)c4)cs3)cccc2n(C)c1=O [Compound 32] | > 10000 | > 10000 | > 1000 | > 10000 | 5.96 | –
11 | CC(C)CCOc1ccc(-c2csc(NC(=O)Cc3cccc4c3c(=O)n(C)c(=O)n4C)n2)cc1 [Compound 22] | > 10000 | > 10000 | > 1000 | > 10000 | 79.8 | –
12 | Cn1c(=O)c2c(cnn2CC(=O)Nc2nc(-c3cc(F)c(OCC4CCC4)c(F)c3)cs2)n(C)c1=O [Compound 43] | > 10000 | > 10000 | > 1000 | > 10000 | 18.4 | –
13 | Cc1oc2c(c1CC(=O)Nc1nc(-c3ccc(Cl)c(OC(F)(F)F)c3)cs1)c(=O)n(C)c(=O)n2C [Compound 63] | > 10000 | > 1000 | > 10000 | > 10000 | 9.04 | –
14 | Cn1nc2c(c1CC(=O)Nc1nc(-c3ccc(OC(F)(F)F)c(F)c3)cs1)c(=O)n(C)c(=O)n2C [Compound 41] | > 10000 | > 10000 | > 1000 | > 10000 | 11 | –

Now from value to compound, other results behind:

Row | IC50 (human TRPV1) [nM] | IC50 (human TRPV3) [nM] | IC50 (human TRPV4) [nM] | IC50 (human TRPM8) [nM] | IC50 (human TRPA1) [nM] | Compound | pulmonary eosinophilia [1]
15 | > 10000 | > 10000 | > 10000 | > 1000 | 41.3 | CC(C)c1sc2c(c1CC(=O)Nc1nc(-c3ccc(C(F)(F)F)c(F)c3)cs1)c(=O)n(C)c(=O)n2C [Compound 46] | –
16 | > 10000 | > 10000 | 1320 | > 10000 | 13.4 | Cn1c(=O)c2c(CC(=O)Nc3nc(-c4ccc(C(F)(F)F)c(F)c4)cs3)cccc2n(C)c1=O [Compound 18] | –
17 | > 10000 | > 10000 | > 10000 | > 10000 | 65.5 | Cn1c(=O)c2c(CC(=O)Nc3nc(-c4cccc(F)c4F)cs3)cccc2n(C)c1=O [Compound 27] | –
18 | > 10000 | > 10000 | > 10000 | > 10000 | 2.93 | Cc1oc2c(c1CC(=O)Nc1nc(-c3cc(F)cc(C(F)(F)F)c3)cs1)c(=O)n(C)c(=O)n2C [Compound 61] | –
19 | > 10000 | 2100 | 1870 | > 10000 | 47.4 | Cn1c(=O)c2c(CC(=O)Nc3nc(-c4cccc(C(F)(F)F)c4)cs3)cccc2n(C)c1=O [Compound 7] | –
20 | > 10000 | > 1000 | > 10000 | > 10000 | 138 | Cn1c(=O)c2c(CC(=O)Nc3nc(-c4cc(Cl)ccc4F)cs3)cccc2n(C)c1=O [Compound 24] | –
21 | > 10000 | > 1000 | 162 | > 10000 | 6.74 | Cn1c(=O)c2c(CC(=O)Nc3nc(-c4ccc(C(F)(F)F)c(F)c4)cs3)nsc2n(C)c1=O [Compound 81] | –
22 | > 10000 | > 10000 | > 10000 | > 10000 | 18.1 | CCc1sc2c(c1CC(=O)Nc1nc(-c3cc(F)c(OC(F)F)c(F)c3)cs1)c(=O)n(C)c(=O)n2C [Compound 48] | –
23 | > 10000 | > 1000 | 903 | > 10000 | 6.49 | Cn1c(=O)c2c(CC(=O)Nc3nc(-c4ccc(C(F)(F)F)c(F)c4F)cs3)cccc2n(C)c1=O [Compound 28] | –
24 | > 10000 | > 1000 | > 10000 | > 10000 | 4.84 | Cc1oc2c(c1CC(=O)Nc1nc(-c3ccc(F)c(OC(F)(F)F)c3)cs1)c(=O)n(C)c(=O)n2C [Compound 68] | –
25 | > 10000 | > 10000 | < 1000 | > 10000 | 5.37 | Cn1c(=O)c2c(CC(=O)Nc3nc(-c4cc(F)c(C(F)(F)F)c(F)c4)cs3)cccc2n(C)c1=O [Compound 33] | –
